Measured values from the supplement of paper PMC10307832.

Each cell line was assayed with CCn1c(-c2nonc2N)nc2c(C#CC(C)(C)O)ncc(OC[C@H]3CCCNC3)c21 + CS(=O)(=O)CCNCc1ccc(-c2ccc3ncnc(Nc4ccc(OCc5cccc(F)c5)c(Cl)c4)c3c2)o1 [Lapatinib] (partner 2 µM) (assay: relative viability (nuclei count vs DMSO), 5 days (fraction); higher = more cells survive). Details: first compound 1 µM.
In short: (§1)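 Relative viability divides the nuclei count in treated wells by that in vehicle wells. Lung cancer cell lines were seeded in 1536-well plates, dosed by pin tool the next day, and fixed and stained after 5 days in one step with final 0.05% Triton X-100, 1% formaldehyde and 1 ug/ml Hoechst. Dosing was a single drug or a fixed anchor-drug dose plus five library-drug doses (not always all listed) in √10 steps, and values are medians of duplicate plates imaged at 4×.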
With HARA the relative viability was 0.95. With HCC-78 the relative viability was 0.301. In the case of NCI-H322M, the relative viability is reported as 0.524. With LCLC-97TM1 the relative viability was 1.27. Work on NCI-H2009 yielded a relative viability of 0.905. A-427 showed a relative viability of 1.03. NCI-H661 was tested, and the relative viability was 0.489. In the case of NCI-H1734, the relative viability is reported as 0.825. Work on NCI-H460 yielded a relative viability of 0.775. NCI-H2347 showed a relative viability of 0.889. SK-LU-1 showed a relative viability of 0.676. With NCI-H1395 the relative viability was 0.869. 201T was tested, and the relative viability was 1.01. With NCI-H1915 the relative viability was 0.973. Cell Line HCC-827 has a relative viability of 0.217. LXF-289 gave a relative viability of 0.88.

Each cell line was assayed with CCOC1=CC=CC=C1N=NC2=C(NN(C2=O)C3=NC(=CS3)C4=CC=CC=C4)C [BAM7] + CS(=O)(=O)N1CCN(Cc2cc3nc(-c4cccc5[nH]ncc45)nc(N4CCOCC4)c3s2)CC1 [Pictilisib] (partner 1 µM) in the same assay as above. Details: first compound 0.5 µM.
In short: as §1
For Calu-6, the relative viability was 1.01. HCC-366 gave a relative viability of 0.163. NCI-H1666 was tested, and the relative viability was 0.404. NCI-H596 showed a relative viability of 0.372. Work on LK-2 yielded a relative viability of 0.595. Work on NCI-H2087 yielded a relative viability of 1.09. SK-MES-1 was tested, and the relative viability was 0.432. Work on H3255 yielded a relative viability of 0.544. COR-L23 gave a relative viability of 0.832. COR-L 105 showed a relative viability of 0.366. IA-LM was tested, and the relative viability was 0.356. For LOU-NH91, the relative viability was 0.54. NCI-H2170 gave a relative viability of 0.268. For NCI-H2405, the relative viability was 0.438. HOP-62 showed a relative viability of 0.664. HCC-44 gave a relative viability of 0.593. Work on A549 yielded a relative viability of 0.566. With LU99A the relative viability was 0.32. For BEN, the relative viability was 0.611. Work on HARA yielded a relative viability of 0.327. HCC-78 showed a relative viability of 0.178. NCI-H322M gave a relative viability of 0.53. For LCLC-97TM1, the relative viability was 0.218. NCI-H2009 showed a relative viability of 0.899. A-427 gave a relative viability of 0.557. In the case of NCI-H661, the relative viability is reported as 0.406. For NCI-H1734, the relative viability was 0.477. With NCI-H460 the relative viability was 0.439. For NCI-H2347, the relative viability was 0.639. For SK-LU-1, the relative viability was 0.502. NCI-H1395 gave a relative viability of 0.612. In the case of 201T, the relative viability is reported as 0.637. Work on NCI-H1915 yielded a relative viability of 1.01. For HCC-827, the relative viability was 0.969. In the case of LXF-289, the relative viability is reported as 0.892.

Same assay, conditions: first compound 5 µM
Calu-6 showed a relative viability of 0.98. Cell Line HCC-366 has a relative viability of 0.163. NCI-H1666 was tested, and the relative viability was 0.617. For NCI-H596, the relative viability was 0.455. LK-2 showed a relative viability of 0.663. NCI-H2087 gave a relative viability of 1.1. For SK-MES-1, the relative viability was 0.455. For H3255, the relative viability was 0.652. For COR-L23, the relative viability was 0.855. COR-L 105 was tested, and the relative viability was 0.427. IA-LM was tested, and the relative viability was 0.306. Cell Line LOU-NH91 has a relative viability of 0.555. NCI-H2170 was tested, and the relative viability was 0.3. In the case of NCI-H2405, the relative viability is reported as 0.557. Work on HOP-62 yielded a relative viability of 0.729. Work on HCC-44 yielded a relative viability of 0.65. A549 was tested, and the relative viability was 0.507. With LU99A the relative viability was 0.315. With BEN the relative viability was 0.642. HARA was tested, and the relative viability was 0.267. In the case of HCC-78, the relative viability is reported as 0.177. Work on NCI-H322M yielded a relative viability of 0.623. LCLC-97TM1 showed a relative viability of 0.197. In the case of NCI-H2009, the relative viability is reported as 0.827. Work on A-427 yielded a relative viability of 0.75. With NCI-H661 the relative viability was 0.426. For NCI-H1734, the relative viability was 0.496. NCI-H460 showed a relative viability of 0.485. NCI-H2347 was tested, and the relative viability was 0.746. With SK-LU-1 the relative viability was 0.658. NCI-H1395 was tested, and the relative viability was 0.714. 201T gave a relative viability of 0.625. Cell Line NCI-H1915 has a relative viability of 1.15. HCC-827 was tested, and the relative viability was 0.908. LXF-289 gave a relative viability of 0.844.

Same assay, conditions: first compound 15.81 µM
Calu-6 showed a relative viability of 0.893. HCC-366 showed a relative viability of 0.141. NCI-H1666 gave a relative viability of 0.352. With NCI-H596 the relative viability was 0.399. LK-2 gave a relative viability of 0.598. NCI-H2087 was tested, and the relative viability was 0.989. With SK-MES-1 the relative viability was 0.369. With H3255 the relative viability was 0.568. COR-L23 was tested, and the relative viability was 0.743. Cell Line COR-L 105 has a relative viability of 0.432. Work on IA-LM yielded a relative viability of 0.37. LOU-NH91 was tested, and the relative viability was 0.524. With NCI-H2170 the relative viability was 0.271. NCI-H2405 was tested, and the relative viability was 0.449. HOP-62 gave a relative viability of 0.742. HCC-44 was tested, and the relative viability was 0.534. Work on A549 yielded a relative viability of 0.483. LU99A showed a relative viability of 0.398. In the case of BEN, the relative viability is reported as 0.518. With HARA the relative viability was 0.334. HCC-78 was tested, and the relative viability was 0.213. For NCI-H322M, the relative viability was 0.549. With LCLC-97TM1 the relative viability was 0.172. NCI-H2009 showed a relative viability of 0.846. Cell Line A-427 has a relative viability of 0.676. NCI-H661 showed a relative viability of 0.452. NCI-H1734 gave a relative viability of 0.451. NCI-H460 gave a relative viability of 0.411. NCI-H2347 gave a relative viability of 0.598. In the case of SK-LU-1, the relative viability is reported as 0.678. NCI-H1395 showed a relative viability of 0.702. 201T gave a relative viability of 0.593. With NCI-H1915 the relative viability was 0.898. Work on HCC-827 yielded a relative viability of 0.877. LXF-289 showed a relative viability of 0.766.

Same assay, conditions: first compound 50 µM
Calu-6 gave a relative viability of 0.823. HCC-366 showed a relative viability of 0.0939. For NCI-H1666, the relative viability was 0.587. In the case of NCI-H596, the relative viability is reported as 0.35. Work on LK-2 yielded a relative viability of 0.546. With NCI-H2087 the relative viability was 0.893. For SK-MES-1, the relative viability was 0.358. In the case of H3255, the relative viability is reported as 0.579. COR-L23 was tested, and the relative viability was 0.872. Cell Line COR-L 105 has a relative viability of 0.455. With IA-LM the relative viability was 0.392. For LOU-NH91, the relative viability was 0.532. With NCI-H2170 the relative viability was 0.314. With NCI-H2405 the relative viability was 0.538. Cell Line HOP-62 has a relative viability of 0.799. With HCC-44 the relative viability was 0.634. Work on A549 yielded a relative viability of 0.508. LU99A gave a relative viability of 0.353. In the case of BEN, the relative viability is reported as 0.59. HARA showed a relative viability of 0.264. HCC-78 was tested, and the relative viability was 0.245. For NCI-H322M, the relative viability was 0.578. Cell Line LCLC-97TM1 has a relative viability of 0.2. In the case of NCI-H2009, the relative viability is reported as 0.854. Work on A-427 yielded a relative viability of 0.72. For NCI-H661, the relative viability was 0.423. For NCI-H1734, the relative viability was 0.482. With NCI-H460 the relative viability was 0.381. Work on NCI-H2347 yielded a relative viability of 0.913. For SK-LU-1, the relative viability was 0.737. Work on NCI-H1395 yielded a relative viability of 0.683. 201T was tested, and the relative viability was 0.69. With NCI-H1915 the relative viability was 1.04. HCC-827 was tested, and the relative viability was 0.977. In the case of LXF-289, the relative viability is reported as 0.786.

What follows are cell lines tested with CCOC1=CC=CC=C1N=NC2=C(NN(C2=O)C3=NC(=CS3)C4=CC=CC=C4)C [BAM7] (assay: relative viability (nuclei count vs DMSO), 5 days (fraction); higher = more cells survive). Details: 0.5 µM.
In short: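 Nuclei counted with MetaXpress define viability as the ratio of treated to vehicle wells, given as a median across plates. The lung cancer cell lines were in 1536-well plates, pinned with five √10-spaced library-drug doses and imaged at 4× after 5 days and Hoechst staining. Plates passed with control CV below 25% and at least one doubling.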
In the case of Calu-6, the relative viability is reported as 1.07.
